Laboratory results as given in patent US8309735B2, “Heterocyclic compounds for the inhibition of integrins and use thereof” (Shire Orphan Therapies GmbH, priority 2006, dated 2012).

What was measured:
[1] = target: T1, integrin alpha5beta1 extracellular domain Fc-fusion (Homo sapiens, UniProt P05556+P08648); assay: alpha5beta1 - Fibronectin Binding Assay (competitive ELISA); settings: inhibition of integrin binding to fibronectin
T1 construct: The integrin alpha5beta1 extracellular domain Fc-fusion was expressed and purified as described; made in house
Protocol: (§1) The optimal concentrations of integrin and ligand were selected from ELISA binding studies with variable concentrations of both to obtain optimal signal noise ratio for further studies. IC50 studies were performed with fixed concentration of ligand and integrin and a serial dilution of inhibitor. The plates were measured with SpectraMax Plus reader (Molecular Devices). The resulting inhibition curves were analyzed using SoftMaxPro 4.0 software, the turning point describes the IC50 value.
(§2) Fibronectin was purchased from Sigma and fibrinogen from Calbiochem. (EMD Biosciences, Darmstadt, Germany). The integrin alpha5beta1 extracellular domain Fc-fusion was expressed and purified as described (Coe, 2001, J. Biol. Chem., 276, 35854). Integrin alphaIIbbeta3 was purchased form Kordia (Kordia Life Science, Leiden, Netherlands)
1.1. alpha5beta1—Fibronectin Binding Assay
Fibronectin was diluted with coating buffer (15 mM Na2CO3, 35 mM NaHCO3, pH 9.6) and coated with 100 μL/well to Nunc-Immuno maxisorp plates (Nalge Nunc Europe Ltd) over night at 4° C. After discarding the coating solution plates were washed 3 times with buffer 1 (25 mM Tris, pH 7.6, 150 mM NaCl, 1 mM MnCl2, 1 mg/ml BSA) and blocked with 100 μL blocking buffer (3% BSA in PBS 0.1% Tween20) for 1 hour at room temperature. After washing the blocked plates (3 times) with buffer 1, integrin (50 μL) and either inhibitor (serial dilution in buffer 1) or buffer 1 (50 μL) were added to the wells and incubated for one hour at RT. Plates were then washed (3 times) with buffer 1 and incubated with 100 μL of anti-human-Fc-HRP antibody conjugate (Sigma-Aldrich, Taufkirchen, Germany) in buffer 1 for 1 hour at RT. After additional washing steps (3 times) with buffer 150 μL of HRP substrate solution TMB (Seramun, Germany) were added to the wells. Color development was stopped after 3-5 minutes with 50 μL 1 M H2SO4. The developed color was measured at 450 nm and analyzed as described above.

Integrin alphaIIbbeta3 = target: T2, Integrin alphaIIbbeta3 (Homo sapiens, UniProt P05106+P08514); assay: alphaIIbbeta3 - Fibrinogen Binding Assay (competitive ELISA); settings: inhibition of integrin binding to fibrinogen, read-out: IC50 alphabIIbbeta3
T2 construct: purchased Kordia (Kordia Life Science, Leiden, Netherlands)
T2 sequence (P08514 32-887 limits assumed): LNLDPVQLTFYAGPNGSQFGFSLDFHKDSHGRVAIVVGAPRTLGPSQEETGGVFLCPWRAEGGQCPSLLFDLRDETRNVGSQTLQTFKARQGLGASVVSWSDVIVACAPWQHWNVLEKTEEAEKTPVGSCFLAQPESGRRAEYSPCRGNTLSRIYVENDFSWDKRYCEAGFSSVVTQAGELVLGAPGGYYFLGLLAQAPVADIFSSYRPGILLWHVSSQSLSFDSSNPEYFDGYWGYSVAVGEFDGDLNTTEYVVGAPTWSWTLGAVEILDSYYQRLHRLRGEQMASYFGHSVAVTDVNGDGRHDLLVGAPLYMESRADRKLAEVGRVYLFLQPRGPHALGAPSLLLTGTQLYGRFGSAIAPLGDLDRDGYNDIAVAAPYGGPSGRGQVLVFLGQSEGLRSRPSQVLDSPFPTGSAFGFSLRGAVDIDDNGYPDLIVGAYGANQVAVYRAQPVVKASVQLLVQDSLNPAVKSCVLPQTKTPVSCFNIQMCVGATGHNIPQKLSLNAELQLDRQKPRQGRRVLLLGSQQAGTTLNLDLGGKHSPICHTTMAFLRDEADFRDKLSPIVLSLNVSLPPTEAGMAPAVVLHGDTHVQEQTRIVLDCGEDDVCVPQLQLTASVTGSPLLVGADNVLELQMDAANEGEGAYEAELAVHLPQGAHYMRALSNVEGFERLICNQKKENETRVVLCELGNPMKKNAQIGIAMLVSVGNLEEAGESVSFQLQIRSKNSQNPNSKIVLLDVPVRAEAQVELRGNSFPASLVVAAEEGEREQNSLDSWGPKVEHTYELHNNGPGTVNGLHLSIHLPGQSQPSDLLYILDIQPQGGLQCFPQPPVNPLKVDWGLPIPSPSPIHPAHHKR
T2 sequence (P05106 27-788): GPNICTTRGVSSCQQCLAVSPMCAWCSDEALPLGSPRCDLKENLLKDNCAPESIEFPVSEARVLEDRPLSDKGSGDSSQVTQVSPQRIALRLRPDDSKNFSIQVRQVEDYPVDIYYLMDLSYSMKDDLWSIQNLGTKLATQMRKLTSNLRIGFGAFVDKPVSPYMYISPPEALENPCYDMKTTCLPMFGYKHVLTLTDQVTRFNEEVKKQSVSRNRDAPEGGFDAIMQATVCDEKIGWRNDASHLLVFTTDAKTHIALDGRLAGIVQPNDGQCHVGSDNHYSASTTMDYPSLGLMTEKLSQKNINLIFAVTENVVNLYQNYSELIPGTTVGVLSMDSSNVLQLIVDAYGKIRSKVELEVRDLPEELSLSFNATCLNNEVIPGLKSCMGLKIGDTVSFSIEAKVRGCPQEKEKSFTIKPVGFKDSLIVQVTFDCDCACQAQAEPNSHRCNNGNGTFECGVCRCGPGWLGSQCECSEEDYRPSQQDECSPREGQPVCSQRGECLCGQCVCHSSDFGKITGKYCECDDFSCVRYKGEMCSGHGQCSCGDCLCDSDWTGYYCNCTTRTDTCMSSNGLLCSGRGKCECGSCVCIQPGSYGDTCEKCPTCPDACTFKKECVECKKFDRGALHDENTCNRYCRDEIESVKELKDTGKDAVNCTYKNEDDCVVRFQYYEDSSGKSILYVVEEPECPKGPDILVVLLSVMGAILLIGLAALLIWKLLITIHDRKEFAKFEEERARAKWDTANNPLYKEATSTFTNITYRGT
Protocol: as §1, §2
1.2. alphaIIbbeta3—Fibrinogen Binding Assay
Fibrinogen was diluted with coating buffer (15 mM Na2CO3, 35 mM NaHCO3, pH 9.6) and coated with 100 μL/well to Nunc-Immuno maxisorp plates over night at 4° C. After discarding the coating solution plates were washed 3 times with buffer 1 (25 mM Tris, pH 7.6, 150 mM NaCl, 1 mM MnCl2, 1 mg/ml BSA) and blocked with 100 μL blocking buffer (3% BSA in PBS 0.1% Tween20) for 1 hour at room temperature. After washing the blocked plates (3 times) with buffer 1, integrin alphaIIbbeta3 (50 μL) and either inhibitor (serial dilution in buffer 3, 25 mM Tris, pH 7.6, 150 mM NaCl, 1 mM MnCl2, 1 mg/ml BSA 1 mM MgCl2, 1 mM CaCl2,) or buffer 3 (50 μL) were added to the wells and incubated for one hour at RT. Plates were then washed (3 times) with buffer 3 and incubated with 100 μL of anti-alphaIIbbeta3 antibody (anti CD41b, Pharmingen) in buffer 3 for 1 hour at RT. Plates were washed (3 times) with buffer 3 and incubated for 1 hour with 100 μL secondary antibody (anti-mouse-HRP conjugate, Sigma) in buffer 3. After additional washing steps (3 times) with buffer 3 50 μL of HRP substrate solution TMB (Seramun) were added to the wells. Color development was stopped after 3-5 minutes with 50 μL 1 M H2SO4. The developed color was measured at 450 nm and analyzed as described above.

Row | SMILES | IC50 [1] | IC50 (Integrin alphaIIbbeta3)
1 | Cc1ccnc(NCc2cc(-c3ccc(C[C@H](NC(=O)c4c(C)cc(C)cc4C)C(=O)O)cc3)on2)c1 [Compound 6, 3-(4-{3-[(4-Methyl-pyridin-2-ylamino)-methyl]-isoxazol-5-yl}-phenyl)-2-(2,4,6-trimethyl-benzoylamino)-propionic acid] | < 100 nM | > 1 nM
2 | Cc1ccnc(NCc2cnc(-c3ccc(C[C@H](NC(=O)c4c(C)cc(C)cc4C)C(=O)O)cc3)s2)c1 [Compound 9, 3-(4-{5-[(4-Methyl-pyridin-2-ylamino)-methyl]-thiazol-2-yl}-phenyl)-2-(2,4,6-trimethyl-benzoylamino)-propionic acid] | < 100 nM | > 1 nM
3 | Cc1ccnc(NCc2coc(-c3ccc(C[C@H](NC(=O)c4c(C)cc(C)cc4C)C(=O)O)cc3)c2)c1 [Compound 12, 3-(4-{4-[(4-Methyl-pyridin-2-ylamino)-methyl]-furan-2-yl}-phenyl)-2-(2,4,6-trimethyl-benzoylamino)-propionic acid] | < 100 nM | > 1 nM
4 | Cc1ccnc(NCc2cn(-c3ccc(C[C@H](NC(=O)c4c(C)cc(C)cc4C)C(=O)O)cc3)nn2)c1 [Compound 15, 3-(4-{4-[(4-Methyl-pyridin-2-ylamino)-methyl]-[1,2,3]triazol-1-yl}-phenyl)-2-(2,4,6-trimethyl-benzoylamino)-propionic acid] | < 100 nM | > 1 nM
5 | Cc1ccnc(NCc2csc(-c3ccc(C[C@H](NC(=O)c4c(C)cc(C)cc4C)C(=O)O)cc3)c2)c1 [Compound 19, 3-(4-{4-[(4-Methyl-pyridin-2-ylamino)-methyl]-thiophen-2-yl}-phenyl)-2-(2,4,6-trimethyl-benzoylamino)-propionic acid] | < 100 nM | > 1 nM
6 | Cc1ccnc(NCc2ccn(-c3ccc(C[C@H](NC(=O)C4(C)CCCCC4)C(=O)O)cc3)c2)c1 [Compound 22, 2-[(1-Methyl-cyclohexanecarbonyl)-amino]-3-(4-{3-[(4-methyl-pyridin-2-ylamino)-methyl]-pyrrol-1-yl}-phenyl)-propionic acid] | < 100 nM | > 1 nM
7 | Cc1cc(C)c(C(=O)N[C@@H](Cc2ccc(-n3cc(CNc4nc5ccccc5[nH]4)nn3)cc2)C(=O)O)c(C)c1 [Compound 29, 3-(4-{4-[(1H-Benzoimidazol-2-ylamino)-methyl]-[1,2,3]triazol-1-yl}-phenyl)-2-(2,4,6-trimethyl-benzoylamino)-propionic] | < 100 nM | > 1 nM
8 | Cc1ccnc(NCc2coc(-c3ccc(C[C@H](NC(=O)c4c(C)cccc4C)C(=O)O)cc3)c2)c1 [Compound 35, 2-(2,6-Dimethyl-benzoylamino)-3-(4-{4-[(4-methyl-pyridin-2-ylamino)-methyl]-furan-2-yl}-phenyl)-propionic acid] | < 100 nM | > 1 nM
9 | CCc1cccc(C)c1C(=O)N[C@@H](Cc1ccc(-c2cc(CNc3cc(C)ccn3)co2)cc1)C(=O)O [Compound 36, 2-(2-Ethyl-6-methyl-benzoylamino)-3-(4-{4-[(4-methyl-pyridin-2-ylamino)-methyl]-furan-2-yl}-phenyl)-propionic acid] | < 100 nM | > 1 nM
10 | Cc1ccnc(NCc2coc(-c3ccc(C[C@H](NC(=O)c4c(C)cc(F)cc4C)C(=O)O)cc3)c2)c1 [Compound 37, 2-(4-Fluoro-2,6-dimethyl-benzoylamino)-3-(4-{4-[(4-methyl-pyridin-2-ylamino)-methyl]-furan-2-yl}-phenyl)-propionic acid] | < 100 nM | > 1 nM
